Five compounds from US8575091B1, “Amylin analogues and pharmaceutical compositions thereof” (Novo Nordisk A/S, priority 2012, dated 2013) can be followed below.

Assay [1] concerns the target T1, human calcitonin receptor (Homo sapiens, UniProt P30988).
T1 construct: expressed in transfected cells
T1 sequence (P30988 25-474): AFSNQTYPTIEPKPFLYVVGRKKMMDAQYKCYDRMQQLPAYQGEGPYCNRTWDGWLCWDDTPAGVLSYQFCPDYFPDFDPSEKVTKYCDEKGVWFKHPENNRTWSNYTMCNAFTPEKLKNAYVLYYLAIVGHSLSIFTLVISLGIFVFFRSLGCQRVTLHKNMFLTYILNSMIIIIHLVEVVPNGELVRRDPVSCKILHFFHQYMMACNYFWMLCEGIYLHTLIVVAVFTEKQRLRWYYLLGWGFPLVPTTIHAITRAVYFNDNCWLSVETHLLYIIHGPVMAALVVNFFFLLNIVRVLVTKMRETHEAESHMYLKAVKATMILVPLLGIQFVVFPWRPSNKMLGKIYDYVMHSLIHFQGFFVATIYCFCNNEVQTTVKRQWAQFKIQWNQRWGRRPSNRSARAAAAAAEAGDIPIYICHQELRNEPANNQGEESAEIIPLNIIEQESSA
In words: Assay (VII) binding to the human calcitonin receptor (SPA, 125I-Calcitonin).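 Also: cell membranes coupled to SPA beads, competitive displacement read by scintillation counting, IC50 derived from a one-site competition fit as a measure of receptor affinity.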 To be noted: read-out: hCTR bind IC50.

In assay [2] the target is T2, human amylin receptor (amylin 3(a) receptor: human calcitonin receptor + RAMP-3) (Homo sapiens, UniProt O60896+P30988).
T2 construct: expressed in transfected cells
T2 sequence (P30988 25-474): T1 sequence (P30988 25-474)
T2 sequence (O60896 24-148 partner): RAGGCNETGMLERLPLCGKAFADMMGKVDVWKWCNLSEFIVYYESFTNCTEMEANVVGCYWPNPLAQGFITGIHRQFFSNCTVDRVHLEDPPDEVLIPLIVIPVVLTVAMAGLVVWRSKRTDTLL
Put plainly: Assay (II)a functional assay, human amylin receptor (CRE luciferase, BHK cells). It is filed as cell-based. To be noted: for EC50: functional assay, human amylin receptor, read-out: hAmylin-R funct. EC50.

Assay [3] deals with T1, human calcitonin receptor. Put plainly: Assay (II)a functional assay, human calcitonin receptor (CRE luciferase, BHK cells).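 Also: luminescence from a CRE-driven luciferase reporter, read by single photon counting after cells were exposed to test samples for 3 h at 37 °C under 5% CO2.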 It is filed as cell-based. The settings on record: read-out: hCTR funct. EC50.
Assay [4] has as its target T3, human amylin receptor (Homo sapiens, UniProt O60896+P30988).
T3 construct: expressed in transfected cells
T3 sequence (P30988 25-474): T1 sequence (P30988 25-474)
T3 sequence (O60896 24-148 partner): T2 sequence (O60896 24-148 partner)
In words: Assay (V) binding to the human amylin receptor (SPA, 125I-rat amylin). The settings on record: for IC50: human amylin receptor membranes, SPA, read-out: hAmylin-R bind IC50. A digest of the protocol:
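IC50, taken as receptor affinity, came from one-site binding competition analysis of scintillation proximity counts. Amylin 3(a)/CRE-luc cell membranes (35 ng/μL final) were mixed with SPA beads (0.05 mg/well) in 50 mM Hepes pH 7.4 containing CaCl2, MgCl2, 0.1% OA and 0.02% Tween20.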

The mark [5] stands for this setting: Table 6, human functional selectivity (hCTR EC50 / hAmylin-R EC50).
The mark [6] stands for this setting: Table 7b, human calcitonin receptor binding IC50 divided by human amylin receptor binding IC50.
Setting [7] is: Table 7c, human calcitonin receptor binding IC50 divided by human amylin receptor binding IC50.
Where [8] appears, read: human binding ratio, included for comparison.

The structures appear in SMILES notation. Numbered stars: 1 amine (or outer) side, 2 acyl side, 3 side chain; on linkers, the order of the positions; unused ones are H or OH. Bridge positions count the residues as written; N and C are the ends. Peptide text beside a SMILES is read from it. * marks the point of attachment. C20 diacid = O=C(O)CCCCCCCCCCCCCCCCCCC(=O)*; γGlu = O=C(O)[C@H](CCC(=O)[*:2])N[*:1]

In the case of `CC[C@H](C)[C@H](NC(=O)[C@H](C)NC(=O)CNC(=O)[C@H](Cc1ccccc1)NC(=O)[C@H](CC(N)=O)NC(=O)[C@@H]1CCCN1C(=O)[C@H](CO)NC(=O)[C@H](CO)NC(=O)[C@H](Cc1c[nH]cn1)NC(=O)[C@H](CCCNC(=N)N)NC(=O)[C@H](CC(C)C)NC(=O)[C@H](Cc1ccccc1)NC(=O)[C@H](CCC(=O)O)NC(=O)[C@H](C)NC(=O)[C@H](CC(C)C)NC(=O)[C@H](CCCNC(=N)N)NC(=O)[C@H](CCC(N)=O)NC(=O)[C@@H](NC(=O)[C@H](C)NC(=O)[C@@H]1CSSC[C@H](NC(=O)[C@H](CCCCN)NC(=O)COCCOCCNC(=O)COCCOCCNC(=O)CC[C@H](NC(=O)CCCCCCCCCCCCCCCCCCC(=O)O)C(=O)O)C(=O)N[C@@H](CC(N)=O)C(=O)N[C@@H]([C@@H](C)O)C(=O)N[C@@H](C)C(=O)N[C@@H]([C@@H](C)O)C(=O)N1)[C@@H](C)O)C(=O)N1CCC[C@H]1C(=O)N[C@@H](CO)C(=O)N[C@@H](CO)C(=O)N[C@H](C(=O)N[C@@H](CC(N)=O)C(=O)N[C@H](C(=O)NCC(=O)N[C@@H](CO)C(=O)N[C@@H](CC(N)=O)C(=O)N[C@H](C(=O)N[C@@H](Cc1ccc(O)cc1)C(N)=O)[C@@H](C)O)C(C)C)[C@@H](C)O` [Example 19], the 50% inhibitory concentration (IC50) is 20.4 nM in assay [1] and 0.556 nM in assay [4]. The EC50 in assay [2] is 0.307 nM; in assay [3], 5.32 nM.
`CC[C@H](C)[C@H](NC(=O)[C@H](C)NC(=O)CNC(=O)[C@H](Cc1ccccc1)NC(=O)[C@H](CC(N)=O)NC(=O)[C@@H]1CCCN1C(=O)[C@H](CO)NC(=O)[C@H](CO)NC(=O)[C@H](Cc1c[nH]cn1)NC(=O)[C@H](CCCNC(=N)N)NC(=O)[C@H](CC(C)C)NC(=O)[C@H](Cc1ccccc1)NC(=O)[C@H](CCC(=O)O)NC(=O)[C@H](C)NC(=O)[C@H](CC(C)C)NC(=O)[C@H](CCCNC(=N)N)NC(=O)[C@H](CCC(N)=O)NC(=O)[C@@H](NC(=O)[C@H](C)NC(=O)[C@@H]1CSSC[C@H](NC(=O)[C@H](CCCCN)NC(=O)CC[C@H](NC(=O)CCCCCCCCCCCCCCCCCCC(=O)O)C(=O)O)C(=O)N[C@@H](CC(N)=O)C(=O)N[C@@H]([C@@H](C)O)C(=O)N[C@@H](C)C(=O)N[C@@H]([C@@H](C)O)C(=O)N1)[C@@H](C)O)C(=O)N1CCC[C@H]1C(=O)N[C@@H](CO)C(=O)N[C@@H](CO)C(=O)N[C@H](C(=O)N[C@@H](CC(N)=O)C(=O)N[C@H](C(=O)NCC(=O)N[C@@H](CO)C(=O)N[C@@H](CCC(=O)O)C(=O)N[C@H](C(=O)N[C@@H](Cc1ccc(O)cc1)C(N)=O)[C@@H](C)O)C(C)C)[C@@H](C)O` [Example 22] ({C20 diacid-γGlu}-KCNTATCATQRLAEFLRHSSPNFGAIPSSTNVGSETY-NH2; disulfide 2-7): the concentration for half-maximal inhibition (IC50) in assay [1] is 9.73 nM; in assay [4], 0.794 nM. Besides, the “Ratio hCT/hAmylin funct.” value in assay [2] (setting [5]) was 3.8. Also, the concentration giving a half-maximal response (EC50) in assay [2] was 0.27 nM; in assay [3], 1.03 nM.
Turning to `CC[C@H](C)[C@H](NC(=O)[C@H](C)NC(=O)CNC(=O)[C@H](Cc1ccccc1)NC(=O)[C@H](CC(N)=O)NC(=O)[C@@H]1CCCN1C(=O)[C@H](CO)NC(=O)[C@H](CO)NC(=O)[C@H](Cc1c[nH]cn1)NC(=O)[C@H](CCCNC(=N)N)NC(=O)[C@H](CC(C)C)NC(=O)[C@H](Cc1ccccc1)NC(=O)[C@H](CC(N)=O)NC(=O)[C@H](C)NC(=O)[C@H](CC(C)C)NC(=O)[C@H](CCCNC(=N)N)NC(=O)[C@H](CCC(N)=O)NC(=O)[C@@H](NC(=O)[C@H](C)NC(=O)[C@@H]1CSSC[C@H](NC(=O)[C@H](CCCCN)NC(=O)CC[C@H](NC(=O)CCCCCCCCCCCCCCCCCCC(=O)O)C(=O)O)C(=O)N[C@@H](CC(N)=O)C(=O)N[C@@H]([C@@H](C)O)C(=O)N[C@@H](C)C(=O)N[C@@H]([C@@H](C)O)C(=O)N1)[C@@H](C)O)C(=O)N1CCC[C@H]1C(=O)N[C@@H](CO)C(=O)N[C@@H](CO)C(=O)N[C@H](C(=O)N[C@@H](CC(N)=O)C(=O)N[C@H](C(=O)NCC(=O)N[C@@H](CO)C(=O)N[C@@H](CCC(=O)O)C(=O)N[C@H](C(=O)N[C@@H](Cc1ccc(O)cc1)C(N)=O)[C@@H](C)O)C(C)C)[C@@H](C)O` [Example 23], the IC50 in assay [1] is 21.8 nM; in assay [4] it was 0.871 nM. The “Ratio hCT/hAmylin funct.” value turned out to be 8.9 in assay [2] (setting [5]); 8.9 in assay [2] (Table 6a, human functional selectivity (hCTR EC50 / hAmylin-R EC50), at least 5); 8.9 in assay [2] (Table 6j, hCTR funct. EC50 / hAmylin-R funct. EC50); 8.9 in assay [2] (Table 6k, hCTR funct. EC50 / hAmylin-R funct. EC50). Also, the EC50 in assay [2] turned out to be 0.34 nM; in assay [3], 3.02 nM. Besides, the “Ratio hCT/hAmylin binding” value in assay [4] (setting [6]), in assay [4] (setting [7]) and in assay [4] (setting [8]) was 25.0 throughout.
On to `CC[C@H](C)[C@H](NC(=O)[C@H](C)NC(=O)CNC(=O)[C@H](Cc1ccccc1)NC(=O)[C@H](CC(N)=O)NC(=O)[C@@H]1CCCN1C(=O)[C@H](CO)NC(=O)[C@H](CO)NC(=O)[C@H](Cc1c[nH]cn1)NC(=O)[C@H](CCCNC(=N)N)NC(=O)[C@H](CC(C)C)NC(=O)[C@H](Cc1ccccc1)NC(=O)[C@H](CC(N)=O)NC(=O)[C@H](C)NC(=O)[C@H](CC(C)C)NC(=O)[C@H](CCCNC(=N)N)NC(=O)[C@H](CCC(N)=O)NC(=O)[C@@H](NC(=O)[C@H](C)NC(=O)[C@@H]1CSSC[C@H](NC(=O)[C@H](CCCCN)NC(=O)COCCOCCNC(=O)COCCOCCNC(=O)CC[C@H](NC(=O)CCCCCCCCCCCCCCCCCCC(=O)O)C(=O)O)C(=O)N[C@@H](CC(N)=O)C(=O)N[C@@H]([C@@H](C)O)C(=O)N[C@@H](C)C(=O)N[C@@H]([C@@H](C)O)C(=O)N1)[C@@H](C)O)C(=O)N1CCC[C@H]1C(=O)N[C@@H](CO)C(=O)N[C@@H](CO)C(=O)N[C@H](C(=O)N[C@@H](CC(N)=O)C(=O)N[C@H](C(=O)NCC(=O)N[C@@H](CO)C(=O)N[C@@H](CC(N)=O)C(=O)N[C@H](C(=O)N[C@@H](Cc1ccc(O)cc1)C(N)=O)[C@@H](C)O)C(C)C)[C@@H](C)O` [Example 24], for which the IC50 in assay [1] is 102 nM; in assay [4], 1.14 nM. Besides, the figures for the EC50 in assay [2] and in assay [3] were 0.433 nM and 10 nM, respectively. Further, the “Ratio hCT/hAmylin binding” value in assay [4] (setting [6]), in assay [4] (setting [7]) and in assay [4] (setting [8]) was 90.0 each time.
As to `CC[C@H](C)[C@H](NC(=O)[C@H](C)NC(=O)CNC(=O)[C@H](Cc1ccccc1)NC(=O)[C@H](CC(N)=O)NC(=O)[C@@H]1CCCN1C(=O)[C@H](CO)NC(=O)[C@H](CO)NC(=O)[C@H](Cc1c[nH]cn1)NC(=O)[C@H](CCCNC(=N)N)NC(=O)[C@H](CC(C)C)NC(=O)[C@H](Cc1ccccc1)NC(=O)[C@H](CC(N)=O)NC(=O)[C@H](C)NC(=O)[C@H](CC(C)C)NC(=O)[C@H](CCCNC(=N)N)NC(=O)[C@H](CCC(N)=O)NC(=O)[C@@H](NC(=O)[C@H](C)NC(=O)[C@@H]1CSSC[C@H](NC(=O)[C@@H](N)CCCCNC(=O)COCCOCCNC(=O)COCCOCCNC(=O)CC[C@H](NC(=O)CCCCCCCCCCCCCCCCCCC(=O)O)C(=O)O)C(=O)N[C@@H](CC(N)=O)C(=O)N[C@@H]([C@@H](C)O)C(=O)N[C@@H](C)C(=O)N[C@@H]([C@@H](C)O)C(=O)N1)[C@@H](C)O)C(=O)N1CCC[C@H]1C(=O)N[C@@H](CO)C(=O)N[C@@H](CO)C(=O)N[C@H](C(=O)N[C@@H](CC(N)=O)C(=O)N[C@H](C(=O)NCC(=O)N[C@@H](CO)C(=O)N[C@@H](CCC(=O)O)C(=O)N[C@H](C(=O)N[C@@H](Cc1ccc(O)cc1)C(N)=O)[C@@H](C)O)C(C)C)[C@@H](C)O` [Example 25], the values for the IC50 in assay [1] and in assay [4] were 43.4 nM and 0.768 nM, respectively. Further, the concentration giving a half-maximal response (EC50) in assay [2] is 0.217 nM; in assay [3] it was 10 nM.

Broadly, the IC50 is the point on the concentration scale where inhibition reaches its midpoint. Broadly, the EC50 is the concentration needed to bring the measured effect to its halfway point.
